From ChEMBL document CHEMBL2202961, “Antiproliferative activity of salinomycin and its derivatives” (Bioorg Med Chem Lett, 2012)
Values after ≈ are worked out from the molar mass of the structure shown.

Key:
LoVo [1] = experiment: Resistance index, ratio of IC50 for doxorubicin-resistant human LoVo/DX cells to IC50 for parental human LoVo cells; assay type: functional
BALB/3T3 [2] = experiment: Selectivity index, ratio of IC50 for mouse BALB/3T3 cells to IC50 doxorubicin-resistant human LoVo/DX cells
[3] = Cytotoxicity against doxorubicin-resistant human LoVo/DX cells incubated for 72 hrs by MTT assay; assay type: functional, cell-based
BALB/3T3 [4] = experiment: Selectivity index, ratio of IC50 for mouse BALB/3T3 cells to IC50 for human HL60 cells; assay type: functional
[5] = Cytotoxicity against vincristine-resistant human HL60/Vinc cells incubated for 72 hrs by MTT assay; assay type: functional, cell-based
Staphylococcus aureus = experiment: Antimicrobial activity against methicillin-resistant Staphylococcus aureus; assay type: functional
HL-60 [6] = experiment: Resistance index, ratio of IC50 for vincristine-resistant human HL60/Vinc cells to IC50 for parental human HL60 cells; assay type: functional
HL-60 [7] = experiment: Cytotoxicity against human HL60 cells incubated for 72 hrs by MTT assay; settings: HL-60, 72 h
BALB/3T3 [8] = experiment: Selectivity index, ratio of IC50 for mouse BALB/3T3 cells to IC50 for human vincristine-resistant human HL60/Vinc cells; assay type: functional
BALB/3T3 [9] = experiment: Cytotoxicity against mouse BALB/3T3 cells incubated for 72 hrs by MTT assay; assay type: cell-based; settings: BALB/3T3, 72 h
LoVo [10] = experiment: Cytotoxicity against human LoVo cells incubated for 72 hrs by MTT assay; assay type: functional, cell-based
LoVo [11] = experiment: Selectivity index, ratio of IC50 for mouse BALB/3T3 cells to IC50 for human LoVo cells; assay type: functional

| Compound | Ratio IC50 (LoVo [1]) | Ratio IC50 (BALB/3T3 [2]) | IC50 [3] | Ratio IC50 (BALB/3T3 [4]) | IC50 [5] | MIC (Staphylococcus aureus) | Ratio IC50 (HL-60 [6]) | IC50 (HL-60 [7]) | Ratio IC50 (BALB/3T3 [8]) | IC50 (BALB/3T3 [9]) | IC50 (LoVo [10]) | Ratio IC50 (LoVo [11]) |
| --- | --- | --- | --- | --- | --- | --- | --- | --- | --- | --- | --- | --- |
| CC[C@@H](C(=O)[C@@H](C)[C@@H](O)[C@H](C)[C@@H]1O[C@@H]([C@@H](CC)C(=O)On2nnc3ccccc32)CC[C@@H]1C)[C@H]1O[C@]2(C=C[C@@H](O)[C@]3(CC[C@@](C)([C@H]4CC[C@](O)(CC)[C@H](C)O4)O3)O2)[C@H](C)C[C@@H]1C | 1.61 | 4.83 | 6.61 µM | 17.33 | 5.25 µM | 1 µg/mL (≈ 1.15 µM) | 2.85 | 1.84 µM | 6.08 | 31.9 µM | 4.11 µM | 7.76 |
| CC[C@@H](C(=O)[C@@H](C)[C@@H](O)[C@H](C)[C@@H]1O[C@@H]([C@@H](CC)C(=O)NCCc2c[nH]c3ccccc23)CC[C@@H]1C)[C@H]1O[C@]2(C=C[C@@H](O)[C@]3(CC[C@@](C)([C@H]4CC[C@](O)(CC)[C@H](C)O4)O3)O2)[C@H](C)C[C@@H]1C | 0.81 | 3.59 | 2.78 µM | 2.84 | 4.31 µM |  | 1.22 | 3.52 µM | 2.31 | 9.98 µM | 3.45 µM | 2.9 |
| CC[C@@H](C(=O)[C@@H](C)[C@@H](O)[C@H](C)[C@@H]1O[C@@H]([C@@H](CC)C(=O)NCc2ccccc2)CC[C@@H]1C)[C@H]1O[C@]2(C=C[C@@H](O)[C@]3(CC[C@@](C)([C@H]4CC[C@](O)(CC)[C@H](C)O4)O3)O2)[C@H](C)C[C@@H]1C | 0.82 | 2.19 | 3.31 µM | 2 | 6.02 µM |  | 1.66 | 3.63 µM | 1.21 | 7.26 µM | 4.02 µM | 1.81 |
| COc1cccc2c1C(=O)c1c(O)c3c(c(O)c1C2=O)C[C@@](O)(C(=O)CO)C[C@@H]3O[C@H]1C[C@H](N)[C@H](O)[C@H](C)O1 [DOXORUBICIN] |  |  | 12.1 µM |  | 0.91 µM |  |  |  |  | 1.91 µM | 0.38 µM |  |
| CCCCNC(=O)[C@H](CC)[C@H]1CC[C@H](C)[C@H]([C@@H](C)[C@H](O)[C@H](C)C(=O)[C@H](CC)[C@H]2O[C@]3(C=C[C@@H](O)[C@]4(CC[C@@](C)([C@H]5CC[C@](O)(CC)[C@H](C)O5)O4)O3)[C@H](C)C[C@@H]2C)O1 | 0.81 | 2.56 | 3.26 µM | 2.12 | 5.31 µM |  | 1.37 | 3.88 µM | 1.55 | 8.21 µM | 4.04 µM | 2.03 |
| CC[C@@H](C(=O)[C@@H](C)[C@@H](O)[C@H](C)[C@@H]1O[C@@H]([C@@H](CC)C(=O)Nc2ccc3c(c2)OCCOCCOCCOCCO3)CC[C@@H]1C)[C@H]1O[C@]2(C=C[C@@H](O)[C@]3(CC[C@@](C)([C@H]4CC[C@](O)(CC)[C@H](C)O4)O3)O2)[C@H](C)C[C@@H]1C | 0.91 | 4.51 | 5.65 µM | 8.27 | 6.87 µM |  | 2.23 | 3.08 µM | 3.71 | 25.5 µM | 6.24 µM | 4.08 |
| CC[C@@H](C(=O)[C@@H](C)[C@@H](O)[C@H](C)[C@@H]1O[C@@H]([C@@H](CC)C(=O)O)CC[C@@H]1C)[C@H]1O[C@]2(C=C[C@@H](O)[C@]3(CC[C@@](C)([C@H]4CC[C@](O)(CC)[C@H](C)O4)O3)O2)[C@H](C)C[C@@H]1C [SALINOMYCIN] | 5.61 | 4.51 | 6.23 µM | 63.81 | 3.44 µM |  | 7.82 | 0.44 µM | 8.16 | 28.1 µM | 1.11 µM | 25.3 |
| CC[C@@H](C(=O)[C@@H](C)[C@@H](O)[C@H](C)[C@@H]1O[C@@H]([C@@H](CC)C(=O)NCCOCCOCCOC)CC[C@@H]1C)[C@H]1O[C@]2(C=C[C@@H](O)[C@]3(CC[C@@](C)([C@H]4CC[C@](O)(CC)[C@H](C)O4)O3)O2)[C@H](C)C[C@@H]1C | 1.03 | 1.28 | 30.6 µM | 1.57 | 29.1 µM |  | 1.17 | 24.9 µM | 1.34 | 39.1 µM | 29.9 µM | 1.31 |
| CC[C@@H](C(=O)[C@@H](C)[C@@H](O)[C@H](C)[C@@H]1O[C@@H]([C@@H](CC)C(=O)Nc2ccccc2)CC[C@@H]1C)[C@H]1O[C@]2(C=C[C@@H](O)[C@]3(CC[C@@](C)([C@H]4CC[C@](O)(CC)[C@H](C)O4)O3)O2)[C@H](C)C[C@@H]1C | 0.78 | 2.21 | 3.21 µM | 1.86 | 4.31 µM |  | 1.14 | 3.79 µM | 1.64 | 7.08 µM | 4.11 µM | 1.72 |
| CC[C@@H](C(=O)[C@@H](C)[C@@H](O)[C@H](C)[C@@H]1O[C@@H]([C@@H](CC)C(=O)NCCCN2CCOCC2)CC[C@@H]1C)[C@H]1O[C@]2(C=C[C@@H](O)[C@]3(CC[C@@](C)([C@H]4CC[C@](O)(CC)[C@H](C)O4)O3)O2)[C@H](C)C[C@@H]1C | 1.08 | 1.78 | 19.4 µM | 6.16 | 28.1 µM |  | 4.99 | 5.63 µM | 1.23 | 34.7 µM | 18 µM | 1.92 |
